Experimental data as given in PubChem BioAssay (NCI).
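Protocol summary: plate cells (96-well), add compound at 5 concentrations, incubate 48 h, interpolate endpoints linearly. TGI denotes the concentration required for complete inhibition of growth.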

Tests used:
Test in all cases: DTP human tumour cell line panel, 48 h
T-47D breast = system: T-47D breast
HCC-2998 colon = system: HCC-2998 colon
KM12 colon = system: KM12 colon
MCF7 breast = system: MCF7 breast
OVCAR-3 ovarian = system: OVCAR-3 ovarian
SNB-19 CNS = system: SNB-19 CNS
SN12C renal = system: SN12C renal
HS 578T breast = system: HS 578T breast
MDA-MB-231 breast = system: MDA-MB-231 breast
SR leukemia = system: SR leukemia

## CC(C)(C)C1=C(Br)C(OC(=O)C(F)(F)F)(C(C)(C)C)OP1(=O)c1ccccc1 (stereo unspecified)
T-47D breast
  TGI: > 100 µM
HCC-2998 colon
  TGI: > 100 µM
KM12 colon
  TGI: > 100 µM
MCF7 breast
  TGI: > 100 µM
OVCAR-3 ovarian
  TGI: > 100 µM
SNB-19 CNS
  TGI: > 100 µM
SN12C renal
  TGI: > 100 µM
HS 578T breast
  TGI: 65.5 µM

## CCn1c2ccccc2c2cc(Nc3cc(C)[nH]c(=O)n3)ccc21
T-47D breast
  TGI: > 100 µM
HCC-2998 colon
  TGI: > 100 µM
KM12 colon
  TGI: > 100 µM
MCF7 breast
  TGI: > 100 µM
OVCAR-3 ovarian
  TGI: > 100 µM
SNB-19 CNS
  TGI: > 100 µM
MDA-MB-231 breast
  TGI: > 100 µM
SN12C renal
  TGI: > 100 µM

## COc1cc(C(C#N)NNc2nc(C)cc(=O)[nH]2)cc(OC)c1OC (stereo unspecified)
KM12 colon
  TGI: > 100 µM
SR leukemia
  TGI: > 100 µM
OVCAR-3 ovarian
  TGI: > 100 µM
SN12C renal
  TGI: > 100 µM

## CC(=O)Nc1ccc(-c2nnc(SCC(=O)Nc3ccc(Cl)cc3)o2)cc1
HCC-2998 colon
  TGI: 37.5 µM
KM12 colon
  TGI: 29 µM
OVCAR-3 ovarian
  TGI: 31.1 µM
SNB-19 CNS
  TGI: 35.7 µM
SN12C renal
  TGI: 27.5 µM

## CC(=O)NC1C(OCc2ccccc2)OC(CO)C(O)C1OCC(=O)N[C@@H](C)C(=O)N[C@H](CCC(=O)NCCCNc1ccc([N+](=O)[O-])c2[nH]c3ccccc3c(=O)c12)C(N)=O (stereo partly specified)
T-47D breast
  TGI: > 100 µM
HCC-2998 colon
  TGI: > 100 µM
KM12 colon
  TGI: > 100 µM
SR leukemia
  TGI: > 100 µM
OVCAR-3 ovarian
  TGI: > 100 µM
SNB-19 CNS
  TGI: > 100 µM
MDA-MB-231 breast
  TGI: > 100 µM
SN12C renal
  TGI: > 100 µM
HS 578T breast
  TGI: 90.2 µM

## CC/C(=C\c1ccc(OC)cc1)c1ccc(OC)cc1
HCC-2998 colon
  TGI: > 100 µM
KM12 colon
  TGI: > 100 µM
MCF7 breast
  TGI: > 100 µM
OVCAR-3 ovarian
  TGI: > 100 µM
SNB-19 CNS
  TGI: > 100 µM
MDA-MB-231 breast
  TGI: > 100 µM
SN12C renal
  TGI: > 100 µM
HS 578T breast
  TGI: > 100 µM

## O=C(O)c1ccc(N/C(=C(/C(Cl)=C(Cl)Cl)[N+](=O)[O-])n2nnc3ccccc32)cc1
T-47D breast
  TGI: > 100 µM
HCC-2998 colon
  TGI: > 100 µM
KM12 colon
  TGI: > 100 µM
MCF7 breast
  TGI: > 100 µM
OVCAR-3 ovarian
  TGI: > 100 µM
SNB-19 CNS
  TGI: > 100 µM
MDA-MB-231 breast
  TGI: > 100 µM
SN12C renal
  TGI: > 100 µM
HS 578T breast
  TGI: > 100 µM

## Cc1ccc(S(=O)(=O)Nn2c(O)c(C#N)c(-c3ccc([N+](=O)[O-])cc3)c(C#N)c2=O)cc1
HCC-2998 colon
  TGI: > 100 µM
KM12 colon
  TGI: > 100 µM
MCF7 breast
  TGI: > 100 µM
SNB-19 CNS
  TGI: > 100 µM
MDA-MB-231 breast
  TGI: > 100 µM
SN12C renal
  TGI: > 100 µM

## CSCCCNC(=O)[C@H](CSC)NC(=O)c1csc(CCNC(=O)[C@@H](NSc2ccccc2[N+](=O)[O-])C(C)O)n1 (stereo partly specified)
HCC-2998 colon
  TGI: > 100 µM
KM12 colon
  TGI: > 100 µM
SR leukemia
  TGI: > 100 µM
MCF7 breast
  TGI: > 100 µM
OVCAR-3 ovarian
  TGI: > 100 µM
SNB-19 CNS
  TGI: > 100 µM
MDA-MB-231 breast
  TGI: > 100 µM
SN12C renal
  TGI: > 100 µM
HS 578T breast
  TGI: > 100 µM

## Cc1c(O)c(=O)ccn1CCc1ccc(O)cc1
T-47D breast
  TGI: > 100 µM
KM12 colon
  TGI: > 100 µM
SR leukemia
  TGI: > 100 µM
MCF7 breast
  TGI: 58.2 µM
OVCAR-3 ovarian
  TGI: 63.4 µM
SNB-19 CNS
  TGI: > 100 µM
MDA-MB-231 breast
  TGI: 50.3 µM
HS 578T breast
  TGI: 69.6 µM

## Cc1ccc(S(=NS(=O)(=O)c2ccc(C)cc2)c2ccc(C)cc2)cc1
T-47D breast
  TGI: > 100 µM
KM12 colon
  TGI: > 100 µM
SR leukemia
  TGI: > 100 µM
MCF7 breast
  TGI: > 100 µM
OVCAR-3 ovarian
  TGI: > 100 µM
SNB-19 CNS
  TGI: > 100 µM
SN12C renal
  TGI: > 100 µM

## NN/C(=N\S(=O)(=O)c1ccc(S(=O)(=O)c2ccccc2)s1)Nc1ccc(Cl)cc1
T-47D breast
  TGI: 59.3 µM
KM12 colon
  TGI: 49.3 µM
SR leukemia
  TGI: 44 µM
MCF7 breast
  TGI: > 100 µM
OVCAR-3 ovarian
  TGI: 72.2 µM
SNB-19 CNS
  TGI: > 100 µM
MDA-MB-231 breast
  TGI: > 100 µM
SN12C renal
  TGI: 77.8 µM

## c1cc2c(cc1C1=NCCN1)c1cc(C3=NCCN3)ccc1n2CC1CCCCC1
T-47D breast
  TGI: 84.7 µM
KM12 colon
  TGI: > 100 µM
SR leukemia
  TGI: 38.6 µM
OVCAR-3 ovarian
  TGI: > 100 µM
SNB-19 CNS
  TGI: 46.3 µM
MDA-MB-231 breast
  TGI: > 100 µM
SN12C renal
  TGI: 80.1 µM
HS 578T breast
  TGI: 32 µM

## COC(=O)C(NC(=O)OC(C)(C)C)P(=O)(OC)OC (stereo unspecified)
T-47D breast
  TGI: > 100 µM
KM12 colon
  TGI: > 100 µM
SR leukemia
  TGI: > 100 µM
MCF7 breast
  TGI: > 100 µM
OVCAR-3 ovarian
  TGI: > 100 µM
SNB-19 CNS
  TGI: > 100 µM
MDA-MB-231 breast
  TGI: > 100 µM
SN12C renal
  TGI: > 100 µM
HS 578T breast
  TGI: > 100 µM

## COC(=O)c1ccc(NCC2=C(Br)C(=O)C=CC2=O)cc1Cl
T-47D breast
  TGI: 38.6 µM
HCC-2998 colon
  TGI: > 100 µM
KM12 colon
  TGI: > 100 µM
MCF7 breast
  TGI: 30.9 µM
OVCAR-3 ovarian
  TGI: 26.8 µM
SNB-19 CNS
  TGI: > 100 µM
MDA-MB-231 breast
  TGI: 34.8 µM
SN12C renal
  TGI: 30.1 µM
HS 578T breast
  TGI: > 100 µM

## Cc1ccc(S[C@@H](C)[C@@](O)(C(N)=O)c2ccccc2)cc1
T-47D breast
  TGI: > 100 µM
HCC-2998 colon
  TGI: > 100 µM
KM12 colon
  TGI: > 100 µM
MCF7 breast
  TGI: > 100 µM
OVCAR-3 ovarian
  TGI: > 100 µM
SNB-19 CNS
  TGI: > 100 µM
MDA-MB-231 breast
  TGI: 46 µM
SN12C renal
  TGI: > 100 µM
HS 578T breast
  TGI: > 100 µM

## CC(C)=NOC(=O)Nc1cccc2c1OCO2
T-47D breast
  TGI: > 100 µM
HCC-2998 colon
  TGI: > 100 µM
KM12 colon
  TGI: > 100 µM
MCF7 breast
  TGI: > 100 µM
OVCAR-3 ovarian
  TGI: > 100 µM
SNB-19 CNS
  TGI: > 100 µM
MDA-MB-231 breast
  TGI: > 100 µM
SN12C renal
  TGI: > 100 µM
HS 578T breast
  TGI: > 100 µM

## CC(=O)OCC1OC(n2c(-c3ccccc3)c(N=Nc3ccc(C)cc3)c(C)c(C#N)c2=S)C(OC(C)=O)C(OC(C)=O)C1OC(C)=O (stereo unspecified)
T-47D breast
  TGI: > 100 µM
HCC-2998 colon
  TGI: > 100 µM
KM12 colon
  TGI: > 100 µM
SR leukemia
  TGI: > 100 µM
MCF7 breast
  TGI: > 100 µM
OVCAR-3 ovarian
  TGI: 64.7 µM
SNB-19 CNS
  TGI: 54.5 µM
MDA-MB-231 breast
  TGI: > 100 µM
SN12C renal
  TGI: 28.9 µM

## CCCCCCCCCCCCOP(=O)(O)OP(=O)(O)OCC1OC(n2cc(C)c(=O)[nH]c2=O)CC1O (stereo unspecified)
T-47D breast
  TGI: > 100 µM
HCC-2998 colon
  TGI: > 100 µM
KM12 colon
  TGI: > 100 µM
MCF7 breast
  TGI: > 100 µM
OVCAR-3 ovarian
  TGI: > 100 µM
SNB-19 CNS
  TGI: > 100 µM
MDA-MB-231 breast
  TGI: > 100 µM
SN12C renal
  TGI: > 100 µM
HS 578T breast
  TGI: > 100 µM

## S=c1nc[nH]c2c1ncn2C1CCCO1 (stereo unspecified)
HCC-2998 colon
  TGI: > 100 µM
KM12 colon
  TGI: > 100 µM
OVCAR-3 ovarian
  TGI: > 100 µM
SNB-19 CNS
  TGI: > 100 µM
SN12C renal
  TGI: > 100 µM

## COc1ccc2c([nH]c3c(O)c(-c4c(C)cc5c([nH]c6c(CC=C(C)C)c(OC)ccc65)c4O)c(C)cc32)c1CC=C(C)C
HCC-2998 colon
  TGI: > 100 µM
KM12 colon
  TGI: > 100 µM
SR leukemia
  TGI: > 100 µM
OVCAR-3 ovarian
  TGI: > 100 µM
SNB-19 CNS
  TGI: > 100 µM
SN12C renal
  TGI: > 100 µM

## O=c1cc(N2CCCC2)[nH]c(=O)n1-c1ccc(Cl)cc1
T-47D breast
  TGI: > 100 µM
HCC-2998 colon
  TGI: > 100 µM
KM12 colon
  TGI: > 100 µM
MCF7 breast
  TGI: > 100 µM
OVCAR-3 ovarian
  TGI: > 100 µM
SNB-19 CNS
  TGI: > 100 µM
MDA-MB-231 breast
  TGI: > 100 µM
SN12C renal
  TGI: > 100 µM
HS 578T breast
  TGI: > 100 µM

## CN(C)/C=C/C=C(/C=N/S(=O)(=O)C(F)(F)F)C1C=CN(S(=O)(=O)C(F)(F)F)C=C1
T-47D breast
  TGI: 75 µM
HCC-2998 colon
  TGI: 78.5 µM
KM12 colon
  TGI: 71.1 µM
SR leukemia
  TGI: > 100 µM
OVCAR-3 ovarian
  TGI: 98 µM
MDA-MB-231 breast
  TGI: 81.7 µM
SN12C renal
  TGI: > 100 µM
HS 578T breast
  TGI: > 100 µM

## NS(=O)(=O)c1ccc(N=Nc2ccc(O)c(C(=O)O)c2)cc1
T-47D breast
  TGI: > 100 µM
HCC-2998 colon
  TGI: > 100 µM
KM12 colon
  TGI: > 100 µM
MCF7 breast
  TGI: > 100 µM
OVCAR-3 ovarian
  TGI: > 100 µM
SNB-19 CNS
  TGI: > 100 µM
MDA-MB-231 breast
  TGI: > 100 µM
SN12C renal
  TGI: > 100 µM
HS 578T breast
  TGI: > 100 µM

## O=c1c2ccccc2nc(-c2ccccc2)n1NC(=S)Nc1cccc(Cl)c1
KM12 colon
  TGI: > 100 µM
SR leukemia
  TGI: > 100 µM
SN12C renal
  TGI: > 100 µM
